Here are results for 12 compounds from patent US6846805B2, “Helical peptidomimetics” (The Brigham and Women's Hospital, Inc., priority 2002, dated 2005).

Square brackets hold non-standard residues; d marks the D form. Peptide text beside a SMILES is read from it. * marks the point of attachment. dBpa = N[C@H](Cc1ccc(C(=O)c2ccccc2)cc1)C(=O)O; Boc = CC(C)(C)OC(=O)*; Aib = CC(C)(N)C(=O)O; Bn = c1ccc(C*)cc1

One assay concerns γ-secretase (production of total Aβ). The assay can be described thus: Inhibition of total Aβ production in APP-transfected cells (sandwich ELISA). Type of assay: cell-based. Conditions: cell-based assay, CHO cells stably transfected with human APP; read-out: IC50 (concentration of compound that reduced production of total Aβ by 50%). An excerpt:
Based on the helical model for the APP transmembrane domain, we have identified short peptides designed to adopt a similar conformation that block γ-secretase activity. Judicious replacement of selected residues of short APP-derived peptides with 2-aminoisobutyric acid (Aib), a known helix-inducing amino acid (19, 20), provided peptides that, in principle, mimic the γ-secretase cleavage site on one face of the helix, with Aib residues on the other face. We have identified Aib-containing peptides (see below) that inhibit Aβ production in APP-transfected cells with IC50's as low as 2 μM. […] We also discovered that an Aib decapeptide that is not based on the APP sequence (VIIb in ref 19: […] The crystal structure of this compound has been determined, and the peptide is fully helical (19). […] These peptides likewise assume a helical conformation, although of the opposite sense (left-handed instead of right-handed). Thus, the invention advantageously provides helical peptidomimetics having improved metabolic stability. […] IC50 is the concentration of compound that reduced production of total Aβ by 50% in a cell-based assay using CHO cells stably transfected with human APP. […] The 15 D-peptides, varied in first position, are tested for their ability to inhibit total Aβ production in APP-transfected cell lines using a sensitive, quantitative, and convenient sandwich ELISA as we have previously described (12, 13). The compound best able to reduce Aβ production is then used as a starting point for the synthesis of a second round of peptide synthesis, 15 compounds each defined at the second position and containing the optimal first residue. In this iterative fashion, the optimal residue for each position is determined.
On to `CC[C@H](C)[C@H](NC(=O)C(C)(C)NC(=O)[C@@H](NC(=O)[C@H](C)NC(=O)OC(C)(C)C)[C@@H](C)OCc1ccccc1)C(=O)N[C@H](C(=O)NC(C)(C)C(=O)OC)C(C)C` [Compound 1, Boc-Ala-Thr(OBz)-Aib-Ile-Val-Aib-OMe] (Boc-AT(Bn)[Aib]IV[Aib]-OMe), for which the IC50 came to 25 µM. Still for that read-out and setting: the value for `CC[C@H](C)[C@H](NC(=O)OC(C)(C)C)C(=O)N[C@@H](C)C(=O)N[C@H](C(=O)NC(C)(C)C(=O)N[C@H](C(=O)N[C@H](C(=O)NC(C)(C)C(=O)OC)C(C)C)[C@@H](C)CC)[C@@H](C)OCc1ccccc1` [Compound 2, Boc-Ile-Ala-Thr(OBz)-Aib-Ile-Val-Aib-OMe] (Boc-IAT(Bn)[Aib]IV[Aib]-OMe) was 15 µM; that for `CC[C@H](C)[C@H](NC(=O)C(C)(C)NC(=O)OC(C)(C)C)C(=O)N[C@@H](C)C(=O)N[C@H](C(=O)NC(C)(C)C(=O)N[C@H](C(=O)N[C@H](C(=O)NC(C)(C)C(=O)OC)C(C)C)[C@@H](C)CC)[C@@H](C)OCc1ccccc1` [Compound 3, Boc-Aib-Ile-Ala-Thr(OBz)-Aib-Ile-Val-Aib-OMe] (Boc-[Aib]IAT(Bn)[Aib]IV[Aib]-OMe) was 10 µM; that for `CC[C@H](C)[C@H](NC(=O)C(C)(C)NC(=O)[C@@H](NC(=O)OC(C)(C)C)C(C)C)C(=O)N[C@@H](C)C(=O)N[C@H](C(=O)NC(C)(C)C(=O)N[C@H](C(=O)N[C@H](C(=O)NC(C)(C)C(=O)OC)C(C)C)[C@@H](C)CC)[C@@H](C)OCc1ccccc1` [Compound 4, Boc-Val-Aib-Ile-Ala-Thr(OBz)-Aib-Ile-Val-Aib-OMe] (Boc-V[Aib]IAT(Bn)[Aib]IV[Aib]-OMe) was 2 µM. Regarding `CC[C@H](C)[C@H](NC(=O)C(C)(C)NC(=O)[C@@H](NC(=O)CNC(=O)OC(C)(C)C)C(C)C)C(=O)N[C@@H](C)C(=O)N[C@H](C(=O)NC(C)(C)C(=O)N[C@H](C(=O)N[C@H](C(=O)NC(C)(C)C(=O)OC)C(C)C)[C@@H](C)CC)[C@@H](C)OCc1ccccc1` [Compound 5, Boc-Gly-Val-Aib-Ile-Ala-Thr(OBz)-Aib-Ile-Val-Aib-OMe] (Boc-GV[Aib]IAT(Bn)[Aib]IV[Aib]-OMe), the IC50 was determined as 5 µM.

With `CC[C@H](C)[C@H](NC(=O)[C@@H](NC(=O)OC(C)(C)C)C(C)C)C(=O)NC(C)(C)C(=O)N[C@H](C(=O)N[C@H](C(=O)NC(C)(C)C(=O)OC)C(C)C)[C@@H](C)OCc1ccccc1` [Compound 6, Boc-Val-Ile-Aib-Thr(OBz)-Val-Aib-OMe] (Boc-VI[Aib]T(Bn)V[Aib]-OMe), the IC50 stood at 12 µM. Still for that read-out and setting: next, `CC[C@H](C)[C@H](NC(=O)[C@@H](NC(=O)[C@@H](NC(=O)OC(C)(C)C)C(C)C)C(C)C)C(=O)NC(C)(C)C(=O)N[C@H](C(=O)N[C@H](C(=O)NC(C)(C)C(=O)OC)C(C)C)[C@@H](C)OCc1ccccc1` [Compound 7, Boc-Val-Val-Ile-Aib-Thr(OBz)-Val-Aib-OMe] (Boc-VVI[Aib]T(Bn)V[Aib]-OMe): 6 µM; `CC[C@H](C)[C@H](NC(=O)[C@@H](NC(=O)[C@@H](NC(=O)C(C)(C)NC(=O)OC(C)(C)C)C(C)C)C(C)C)C(=O)NC(C)(C)C(=O)N[C@H](C(=O)N[C@H](C(=O)NC(C)(C)C(=O)OC)C(C)C)[C@@H](C)OCc1ccccc1` [Compound 8, Boc-Aib-Val-Val-Ile-Aib-Thr(OBz)-Val-Aib-OMe] (Boc-[Aib]VVI[Aib]T(Bn)V[Aib]-OMe): 6 µM; `CC[C@H](C)[C@H](NC(=O)[C@@H](NC(=O)[C@@H](NC(=O)C(C)(C)NC(=O)CNC(=O)OC(C)(C)C)C(C)C)C(C)C)C(=O)NC(C)(C)C(=O)N[C@H](C(=O)N[C@H](C(=O)NC(C)(C)C(=O)OC)C(C)C)[C@@H](C)OCc1ccccc1` [Compound 9, Boc-Gly-Aib-Val-Val-Ile-Aib-Thr(OBz)-Val-Aib-OMe] (Boc-G[Aib]VVI[Aib]T(Bn)V[Aib]-OMe): 3 µM. For `CC[C@H](C)[C@H](NC(=O)[C@@H](NC(=O)[C@@H](NC(=O)C(C)(C)NC(=O)CNC(=O)[C@@H](NC(=O)OC(C)(C)C)C(C)C)C(C)C)C(C)C)C(=O)NC(C)(C)C(=O)N[C@H](C(=O)N[C@H](C(=O)NC(C)(C)C(=O)OC)C(C)C)[C@@H](C)OCc1ccccc1` [Compound 10, Boc-Val-Gly-Aib-Val-Val-Ile-Aib-Thr(OBz)-Val-Aib-OMe] (Boc-VG[Aib]VVI[Aib]T(Bn)V[Aib]-OMe), the IC50 stood at 3 µM. Turning to `COC(=O)C(C)(C)NC(=O)[C@H](CC(C)C)NC(=O)[C@H](C)NC(=O)C(C)(C)NC(=O)[C@H](CC(C)C)NC(=O)[C@H](C)NC(=O)C(C)(C)NC(=O)[C@H](CC(C)C)NC(=O)[C@H](C)NC(=O)C(C)(C)NC(=O)OC(C)(C)C` [VIIb, Boc-Aib-Ala-Leu-Aib-Ala-Leu-Aib-Ala-Leu-Aib-O-methylester, reference compound] (Boc-[Aib]AL[Aib]AL[Aib]AL[Aib]-OMe), the IC50 was determined as 2 µM.

Staying with this assay, now noted: same cell-based assay, CHO cells stably transfected with human APP; read-out: IC50 (reduction of total Aβ production).
For `COC(=O)C(C)(C)NC(=O)[C@H](NC(=O)[C@H](NC(=O)C(C)(C)NC(=O)[C@@H](Cc1ccc(C(=O)c2ccccc2)cc1)NC(=O)[C@H](NC(=O)[C@H](NC(=O)C(C)(C)NC(=O)CNC(=O)[C@H](NC(=O)OC(C)(C)C)C(C)C)C(C)C)C(C)C)[C@H](C)OCc1ccccc1)C(C)C` [SEQ ID NO:11, Boc-D-Val-Gly-Aib-D-Val-D-Val-D-BPA-Aib-D-Thr(OBz)-D-Val-Aib-OMe] (Boc-[dV]G[Aib][dV][dV][dBpa][Aib][dT](Bn)[dV][Aib]-OMe), the IC50 was 0.1 µM.
